According to paper PMC3758303 (PLoS ONE, 2013):

Legend:
[1] = WST-1 cell proliferation assay, 1B-4RL cells; type: cell-based; conditions: human
Protocol: (§1) The WST-1 cell proliferation assay was performed as described previously. Briefly, The cells were plated onto 96-well plates (1×10^3 cells per well) in triplicate and then treated with each reagent at several concentrations for 72 hrs. After treatment, the cells were subjected to the WST-1 cell proliferation assay (Takara Bio, Otsu, Japan) according to the manufacturer’s protocol. This assay is based on the enzymatic cleavage of the tetrazolium salt WST-1 to formazan by cellular mitochondrial dehydrogenases present in viable cells. Therefore, there are […] the value of the WST-1 assay becomes zero. The experiments were performed at least in triplicate. From the assay results, the 50% cytotoxic concentration (CC50) of each reagent was determined.

[2] = WST-1 cell proliferation assay, 1B-4R cells; type: cell-based; conditions: human
Protocol: as §1

[3] = tested on: HCV-JFH-1 strain (genotype 2a) in HuH-7-derived RSc cells; assay: JFH-1 reporter assay system, RSc cells; type: cell-based, hepatitis C virus; conditions: RSc cells inoculated with JR/C5B/BX-2 supernatant, RL assay
Protocol: HCV infection was performed as described previously. RSc and D7 cells were inoculated with supernatant from RSc cells replicating JR/C5B/BX-2 [29].
Figure 2 Characterization of anti-HCV activities of N-89 and N-251. (A) Schematic gene organization of authentic HCV-RNA (HCV-O/RLGE). The positions of four adaptive mutations - Q1112R, P1115L, E1202G, and K1609E - are indicated by a black star. (B) N-89 and N-251 inhibited authentic HCV-RNA replication. The cells harboring HCV-O/RLGE RNA [19] were treated with N-89 (left panel) and N-251 (right panel) for 72 hrs, followed by real-time LightCycler PCR (black circles in the upper panel) and WST-1 assay (open triangles in the upper panel). The relative value (%) calculated at each point, when the level in non-treated cells was assigned as 100%, is presented here. Data are expressed as the means±standard deviation of triplicate assays. Western blot analysis (lower panels) was performed as described in Fig. 1B. […]
We next examined whether N-89 and N-251 worked in an HCV production system using HCV-JFH-1 strain (genotype 2a). […] To clarify whether anti-HCV activity depends on the difference of genotype or assay model, we evaluated the activities of N-89 and N-251 using RSc-JRN/35B [Ikeda et al., submitted] cells harboring a subgenomic HCV-JFH-1 replicon as an additional assay.

[4] = tested on: genome-length HCV-RNA (1B-4 strain of genotype 1b) replication in HuH-7-derived 1B-4R cells; assay: 1B-4R RL assay; type: cell-based; conditions: Hepatitis C virus, 1B-4R assay, HuH-7, HCV strain 1B-4, 72 hrs
Protocol: (§2) RSc and D7 cells were derived from the cell lines HuH-7 and Li23, respectively, were cultured as described previously, [29]. HuH-7-derived OR6 [13], AH1R [30], and 1B-4R [Ikeda et al., submitted] cells harboring genome-length HCV-RNA and HuH-7-derived polyclonal sOR [31], and RSc-JRN/35B [Ikeda et al., submitted] cells harboring an HCV subgenomic replicon were cultured with medium in the presence of G418 (0.3 mg/ml; Geneticin, Invitrogen, Carlsbad, CA) as described previously. Li23-derived ORL8 [20], ORL11 [20], 1B-4RL [Ikeda et al., submitted], and KAH5RL [Ikeda et al., submitted] cells harboring genome-length HCV-RNA were maintained with medium in the presence of G418 (0.3 mg/ml) as described previously. Li23-derived polyclonal sORL8 and sORL11 cells harboring an HCV replicon, which were established by the transfection of ORN/3-5B/QR,KE,SR RNA into the cured OL8 and OL11 cells, respectively, were also cultured with medium in the presence of G418 (0.3 mg/ml) as described previously. Cured cells, from which the HCV-RNA had been eliminated by IFN treatment, were also maintained with medium in the absence of G418 as described previously. […] Therefore, when HCV-RNA is excluded from the cells or when its level is decreased, the cells are killed in the presence of G418. […]
(§3) The SI value of each reagent was determined by dividing the CC50 value by the EC50 value.

[5] = WST-1 cell proliferation assay, sOR cells; type: cell-based; conditions: human
Protocol: as §1

[6] = tested on: genome-length HCV-RNA (KAH5 strain of genotype 1b) replication in Li23-derived KAH5RL cells; assay: KAH5RL RL assay; type: cell-based; conditions: Hepatitis C virus, Li23, HCV strain KAH5, 72 hrs
Protocol: as §2, §3

[7] = WST-1 cell proliferation assay, sORL8 cells; type: cell-based; conditions: human
Protocol: as §1

[8] = tested on: genome-length HCV-RNA (1B-4 strain of genotype 1b) replication in Li23-derived 1B-4RL cells; assay: 1B-4RL RL assay; type: cell-based; conditions: Hepatitis C virus, 1B-4RL assay, Li23, HCV strain 1B-4, 72 hrs
Protocol: as §2, §3

C1CCCCCC2(CCCCC1)OOCCCOO2 [N-89, 1,2,6,7-Tetraoxaspiro[7.11]nonadecane]
CC50 at 72 h [1]: 2400 nM
CC50 at 72 h [2]: 9300 nM
anti-HCV activity for the HCV-JFH-1 strain [3]: did not show anti-HCV activity
EC50 [4]: 420 nM
CC50 at 72 h [5]: 1700 nM
EC50 [6]: 190 nM
CC50 at 72 h [7]: 1100 nM
EC50 [8]: 120 nM

OCCCCCCC1COOC2(CCCCCCCCCCC2)OOC1 [N-251, 6-(1,2,6,7-tetraoxaspiro[7.11]nonadec-4-yl)hexan-1-ol]
CC50 at 72 h [1]: 1900 nM
CC50 at 72 h [2]: 3800 nM
anti-HCV activity for the HCV-JFH-1 strain [3]: did not show anti-HCV activity
EC50 [4]: 980 nM
CC50 at 72 h [5]: 2200 nM
EC50 [6]: 290 nM
CC50 at 72 h [7]: 4100 nM
EC50 [8]: 230 nM
